Test results: the NIST ThermoML archive (doi:10.1016/j.jct.2016.07.038)
Numbers after ± are expanded uncertainties.

Experiments:
[1] = Molar enthalpy of transition or fusion; conditions: Crystal; DSC
[2] = molar heat capacity at constant pressure; conditions: 298.15 K; 101.33 kPa; Crystal; Small sample (50 mg) DSC
[3] = Crystal; for Normal melting temperature: DTA

Molar enthalpy of transition or fusion [1] [kcal/mol]	molar heat capacity at constant pressure [2] [J/K/mol]	Normal melting temperature [3] [°C]	mass density ([3]; 298.15 K, 101.33 kPa, measuring the mass and volume of a pellet of the compound) [kg/m3]	SMILES
3.89 ± 0.139	113.8 ± 3.5	90 ± 0.4		O=C1NCCO1 [2-oxazolidone]
3.67 ± 0.124	164.7 ± 3.5	69.8 ± 0.6	1230 ± 60	CC(=O)N1CCOC1=O [3-acetyl-2-oxazolidinone]
